Reference: patent publication US12138299B2, “Aldehyde dehydrogenase producing bacteria and methods of using same” (Children's Hospital Medical Center, priority 2021, dated 2024)

What was measured:
[1] = test system: SFB; assay: SFB DNA in feces by qPCR; format: in vivo, mice
[2] = test system: C. rodentium; assay: C. rodentium infection, CFUs in stool; format: in vivo, mice; conditions: day 6 p.i.
Procedure: (§1) METHOD DETAILS C. rodentium infections Mice were orally infected with 109 colony-forming units (CFUs) of C. rodentium suspended in sterile PBS. Post-infection CFUs were measured in stool homogenized in 500 μl PBS in a Tissue Lyser II at 30 Hz for 3 min. Homogenates were serially diluted 10-fold on MacConkey agar (BD) and CFUs were counted after 16 hr incubation at 37° C., normalized to fecal weight. For RA studies, mice were orally gavaged with 300 μg RA or vehicle (DMSO) in 100 μl corn oil q.d. 5 days prior to and during the infection. For RAR inhibitor (RARi) studies, 400 μg BMS493 (Torcis Bioscience) suspended in 10% DMSO/corn oil was administered to mice via oral gavage q.o.d. over 6 days pre-infection and 6 days post-infection. For Aldh1a2 inhibition, mice were orally gavaged with 400 mg/kg of WIN 18446 (Cayman Chemical) or vehicle (DMSO) in 100 μl corn oil for 8 days q.o.d.

[3] = test system: C. rodentium; assay: C. rodentium in vitro culture, bacterial density (OD600); format: cell-based, Citrobacter rodentium; conditions: 1 nM-10 μM RA
[4] = test system: mammalian ALDH; assay: Aldehyde dehydrogenase activity in mouse tissues; format: in vivo; conditions: liver of mice treated with WIN18446, 400 mg/kg oral gavage q.o.d. 8 days
Procedure: as §1, with “For Aldh1a2 inhibition, mice were orally gavaged with 400 mg/kg of WIN 18446 (Cayman Chemical) or vehicle (DMSO) in 100 μl corn oil for 8 days q.o.d.” left out
Aldehyde dehydrogenase activity Samples were homogenized in ice-cold ALDH assay buffer (Sigma, MAK082) for 3 min at 30 Hz and spun down at 13,000×g for 10 min. ALDH activity was measured according to manufacturer's instructions (Sigma, MAK082). Briefly, 50 μl of supernatants with equal protein concentrations determined using Pierce BCA Protein Assay Kit (Thermo Scientific) were combined with ALDH substrate and acetaldehyde in 96-well plates. […] Enzymatic activity was calculated as a function of amount NADH generated over time.

[5] = test system: Saa1/2; assay: Saa1/2 mRNA expression in intestinal organoids; format: cell-based, Murine; conditions: 1 μM WIN 18446
Procedure: Intestinal Organoids Murine organoids were generated from ileal IECs isolated from male WT C57BL/6J mice as previously described (Woo et al., 2019; Wu et al., 2020). Dissected terminal ileums (12 cm) were opened longitudinally, scraped to remove intestinal contents and outer cells, washed repeatedly in ice-cold PBS, and cut into 1 cm pieces. Ileum pieces were incubated in Chelation Buffer (2 mM EDTA in PBS) for 30 min at 4° C. with rotation. Tissues were subsequently transferred into new tubes containing Shaking Buffer (PBS, 43.3 mM sucrose, 54.9 mM sorbitol) and gently shaken by hand for 2-4 mins. Ileal crypts were resuspended and plated in Matrigel (Corning) overlaid with 500 μl organoid culture media (60% Advanced DMEM/F12 media supplemented with 10 mM HEPES, 2 mM […], 40% L-WRN conditioned media, 1×N2 supplement, 1×B27 supplement, 50 ng/mL murine EGF, and 10 μM Y-27632 ROCK inhibitor). Culture media was refreshed every 3-4 days. Organoid cultures were treated with 1 μM Aldh1a2 inhibitor WIN 18446 (Cayman Chemical) for 12 hours and then stimulated with 100 μl of SFB contents at 150 mg/ml PBS for 24 hours. For bacterial culture treatments in organoids, 100 μl of liquid cultures were directly added to organoids containing 1 μM retinol for 24 hours. After incubation, organoids were washed 3 times in PBS and lysed using the RNeasy kit (Qiagen).

[6] = test system: downstream gene expression; assay: Relative mRNA expression in liver of WIN18446-treated mice; format: in vivo; conditions: mice treated with WIN18446
Procedure: as §1

[7] = test system: bcALDH1A1; assay: Expression of ALDH by B. cereus cultured -/+ ROL; conditions: B. cereus cultured with retinol

## CC1(C)CC=C(C#Cc2ccccc2)c2cc(/C=C/c3ccc(C(=O)O)cc3)ccc21 [BMS493]
[1]; RARi (BMS493) treatment, 400 μg oral gavage q.o.d.
  SFB colonization (SFB DNA in feces): did not alter SFB colonization
[2]; GF mice treated with RARi
  C. rodentium pathogen levels (CFUs in stool): largely unaffected
[2]; SFB-colonized mice treated with RARi
  Protective effect of SFB against C. rodentium (CFUs in stool): abrogated the protective effect of SFB against C. rodentium

## CC1=C(/C=C/C(C)=C/C=C/C(C)=C/C(=O)O)C(C)(C)CCC1 [RA, all-trans retinoic acid]
[2]; GF mice, 300 μg RA oral gavage q.d. prior to and during infection
  Protection against C. rodentium (CFUs in stool): sufficient to protect GF mice against C. rodentium
[2]; Nos2−/− mice, exogenous RA
  C. rodentium pathogen levels (CFUs in stool): did not alter pathogen levels
[2]; WT mice, exogenous RA
  C. rodentium infection (CFUs in stool): decreased C. rodentium infection
[2]; control dnRAR^FF mice, RA-treatment
  C. rodentium infection (CFUs in stool): decreased infection
[2]; dnRAR^IEC mice, RA-treatment
  RA-induced protection against C. rodentium: greatly reduced
[3]
  C. rodentium growth and viability: not directly impaired

## O=C(NCCCCCCCCNC(=O)C(Cl)Cl)C(Cl)Cl [WIN18446]
[4]
  Mammalian ALDH enzymatic activity: decreased mammalian ALDH enzymatic activity
[1]; following WIN18446 administration
  SFB levels in the intestine (SFB DNA in feces): similar
[5]
  Basal Saa1/2 expression in intestinal organoids: decreased basal Saa1/2 expression
[6]
  Downstream gene expression (relative mRNA in liver): decreased

## CC1=C(/C=C/C(C)=C/C=C/C(C)=C/CO)C(C)(C)CCC1 [retinol, all-trans retinol]
[7]
  bcALDH1A1 expression by B. cereus: increased bcALDH1A1 expression
